For experiment [1], the system named is CPAE (Calf Pulmonary Artery Endothelial) cells. Briefly: Inhibiting activity on angiogenesis (in vitro), CPAE cells, SRB method. The experiment is classed as cell-based. Particulars: Bos taurus, Endothelial cell, 96 h, read-out: IC50, CPAE. The protocol: (§1) Examination of the Inhibiting Activity on Angiogenesis (In Vitro)
(§2) The compound sample dissolved in DMSO was diluted to ten times by using MEM culture medium (in case of CPAE cells) without adding FBS (Fetal Bovine Serum) and RPMI 1640 culture (in case of EL-4 and P388D1 cells), and 20 of the solution was poured to each well of 96 well plate in triplicate for every concentration gradient. Then, each cell suspension was prepared and poured to examine the inhibiting activity on angiogenesis.
In case of CPAE (Calf Pulmonary Artery Endothelial) cells (used after 2-3 subcultures), a cell suspension having 7×10^3 cells/ml was prepared with MEM (+10% FBS+50 μg/ml ECGS) medium, and after pouring the suspension (180 μl) to each well of 96 well plate, they were cultured in a CO2 incubator (5% CO2, humidified) for 4 days.
For orientation: In SRB staining, fixed cells bind dye roughly in proportion to their protein.

The test system of experiment [2] is EL-4 (Lymphoma, murine) cells. Briefly: Inhibiting activity on angiogenesis (in vitro), EL-4 cells, MTT method. Particulars: Mus musculus, EL4, 72 h, read-out: IC50, EL-4. In kind it is cell-based. Here is the method:
as §1, §2
In case of EL-4 (Lymphoma, murine) and P388D1 (leukemia, mouse) cells, a cell suspension having 1×10^4 cells/ml was prepared with RPMI1640 (+10% FBS) culture medium, and after pouring the suspension (180 μl) to each well of 96 well plate, they were cultured in a CO2 incubator (5% CO2, humidified) for 3 days.
In general terms: Tetrazolium dyes change colour on reduction, which living cells bring about.

Where [3] appears, read: CPAE cells, 4 days culture, SRB method.
The mark [4] stands for this setting: EL-4 cells, 3 days culture, MTT method.

What is called IC50 is the concentration needed to halve the response being measured.

Values after ≈ are worked out from the molar mass of the structure shown. Read-outs that look alike come from different tables or passages of the source.

Regarding `CC(C)=CC[C@H]1O[C@]1(C)[C@H]1C[C@H](OC(=O)/C=C/C=C/C=C/C=C/C(=O)O)CC[C@]12CO2` [5-Demethoxy fumagillin, 5-demethoxyfumagillin, reference compound], the IC50 in experiment [1] (setting [3]) was determined as 28 ng/mL (≈ 65.3 nM); in experiment [2] (setting [4]), 21 ng/mL (≈ 49 nM).
In the same order, the values of `CC(C)=CC[C@H]1O[C@]1(C)[C@H]1CC(=O)CC[C@]1(O)CCl` [Example 4, 3-Chloromethyl-5-demethoxy-3-hydroxy-6-oxo-6-deoxyfumagillol] are 0.57 ng/mL (≈ 1.99 nM) and 0.46 ng/mL (≈ 1.6 nM).
On to `CC(C)=CC[C@H]1O[C@]1(C)[C@H]1C[C@H](OC(=O)NC(=O)CCl)CC[C@]12CO2` [Example 5, 5-Demethoxy-6-O-chloroacetylcarbamoylfumagillol], for which the IC50 was found to be 0.28 ng/mL (≈ 0.753 nM) in experiment [1] and 0.52 ng/mL (≈ 1.4 nM) in experiment [2].
On to `COc1cc(/C=C/C(=O)O[C@@H]2CC[C@]3(CO3)[C@@H]([C@@]3(C)O[C@@H]3CC=C(C)C)C2)cc(OC)c1OC` [Example 7, 5-Demethoxy-6-O-(3,4,5-trimethoxy)cinnamoyl fumagillol], for which the values for the IC50 in experiment [1] (setting [3]) and in experiment [2] (setting [4]) were 0.042 ng/mL (≈ 0.0889 nM) and 0.066 ng/mL (≈ 0.14 nM), respectively.
The matching figures for `CC(C)=CC[C@H]1O[C@]1(C)[C@H]1C[C@H](OC(=O)/C=C/c2ccc(Cl)cc2)CC[C@]12CO2` [Example 8, 5-Demethoxy-6-O-(4-chlorocinnamoyl)fumagillol]: 0.32 ng/mL (≈ 0.767 nM) and 0.26 ng/mL (≈ 0.624 nM).
In the same order, the values of `CC(C)=CC[C@H]1O[C@]1(C)[C@H]1C[C@H](OC(=O)NC(=O)CCl)CC[C@]1(O)CCl` [Example 9, 4-O-chloroacetylcarbamoyl-l-chloromethyl-l-cyclohexanol] are 0.36 ng/mL (≈ 0.882 nM) and 0.43 ng/mL (≈ 1.05 nM).
In the same order, the values of `COc1ccc(CCC(=O)O[C@@H]2CC[C@]3(CO3)[C@@H]([C@@]3(C)O[C@@H]3CC=C(C)C)C2)cc1` [Example 10, 5-Demethoxy-6-O-[3-(4-methoxyphenyl)propionyl] fumagillol] are 0.46 ng/mL (≈ 1.11 nM) and 0.82 ng/mL (≈ 1.98 nM).
With `CC(C)=CC[C@H]1O[C@]1(C)[C@H]1C[C@H](OC(=O)OCc2ccccc2)CC[C@]12CO2` [Example 11, O-benzyloxycarbonyl-5-demethoxyfumagillol], the values for the half-inhibitory concentration (IC50) in experiment [1] and in experiment [2] (setting [4]) were 0.012 ng/mL (≈ 0.031 nM) and 0.041 ng/mL (≈ 0.106 nM), respectively.
On to `CC(C)=CC[C@H]1O[C@]1(C)[C@H]1CC(NC(=O)/C=C/c2ccc(N(C)C)cc2)CC[C@]12CO2` (stereo partly shown) [Example 14, 6-(4-Dimethylaminocinnamoyl)amino-5-demethoxy-6-deoxyfumagillol], for which the IC50 in experiment [1] (setting [3]) worked out at 0.19 ng/mL (≈ 0.447 nM); in experiment [2] (setting [4]) it was 0.41 ng/mL (≈ 0.966 nM).
In the same order, the values of `CC(C)=CC[C@H]1O[C@]1(C)[C@H]1CC(=O)CC[C@]1(O)C[S+](C)C` [Example 20, 2-(1,2-Epoxy-1,5-dimethyl-4-hexenyl)-1-dimethylsulfoniomethyl-4-oxo-1-cyclohexanol iodide] are 0.012 ng/mL and 0.032 ng/mL.
On to `CO[C@@H]1[C@H](OC(=O)/C=C/C=C/C=C/C=C/C(=O)O)CC[C@]2(CO2)[C@H]1[C@@]1(C)O[C@@H]1CC=C(C)C` [Fumagillin, reference compound], for which the half-inhibitory concentration (IC50) in experiment [1] came out at 3.2 ng/mL (≈ 6.98 nM); in experiment [2], 1.6 ng/mL (≈ 3.49 nM).

For the origin of these results see US6040337A, “5-demethoxyfumagillol derivatives and processes for preparing the same” (priority 1998, dated 2000).
